Experiment in all cases: KinomeScan kinase panel, single concentration 10 µM
Assay type in all cases: binding

Experiment [1] concerns the target T1, KinomeScan kinase panel (Homo sapiens, UniProt Q9H2K8).
T1 construct: purchased DiscoveRx (KinomeScan)
T1 sequence (Q9H2K8 1-898): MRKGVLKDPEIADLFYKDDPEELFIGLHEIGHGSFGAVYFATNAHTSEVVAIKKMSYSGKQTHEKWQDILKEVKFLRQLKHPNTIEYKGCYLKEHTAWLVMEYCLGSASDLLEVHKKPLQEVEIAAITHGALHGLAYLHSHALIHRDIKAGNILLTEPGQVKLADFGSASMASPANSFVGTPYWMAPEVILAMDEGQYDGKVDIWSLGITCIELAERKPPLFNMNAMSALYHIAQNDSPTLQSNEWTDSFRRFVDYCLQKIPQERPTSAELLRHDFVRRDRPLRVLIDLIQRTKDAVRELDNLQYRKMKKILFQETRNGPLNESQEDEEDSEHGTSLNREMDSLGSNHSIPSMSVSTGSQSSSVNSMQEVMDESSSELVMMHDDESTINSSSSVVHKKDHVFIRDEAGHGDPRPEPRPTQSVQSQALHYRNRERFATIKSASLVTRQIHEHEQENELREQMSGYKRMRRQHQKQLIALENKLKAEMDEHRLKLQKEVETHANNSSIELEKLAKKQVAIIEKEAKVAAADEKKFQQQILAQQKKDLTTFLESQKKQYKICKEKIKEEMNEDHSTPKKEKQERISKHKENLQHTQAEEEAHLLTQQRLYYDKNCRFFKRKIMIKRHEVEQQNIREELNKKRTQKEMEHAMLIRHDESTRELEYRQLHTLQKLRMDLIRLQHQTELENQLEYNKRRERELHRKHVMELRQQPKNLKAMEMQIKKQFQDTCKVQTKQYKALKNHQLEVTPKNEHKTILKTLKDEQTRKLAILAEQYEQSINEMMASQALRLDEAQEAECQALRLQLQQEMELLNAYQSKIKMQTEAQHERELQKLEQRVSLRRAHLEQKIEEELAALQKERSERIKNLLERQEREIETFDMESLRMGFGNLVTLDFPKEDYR
As to conditions: read-out: score (%).

In experiment [2] the target is T2, KinomeScan kinase panel (Homo sapiens, UniProt O00750).
T2 construct: purchased DiscoveRx (KinomeScan)
T2 sequence (O00750 whole entry): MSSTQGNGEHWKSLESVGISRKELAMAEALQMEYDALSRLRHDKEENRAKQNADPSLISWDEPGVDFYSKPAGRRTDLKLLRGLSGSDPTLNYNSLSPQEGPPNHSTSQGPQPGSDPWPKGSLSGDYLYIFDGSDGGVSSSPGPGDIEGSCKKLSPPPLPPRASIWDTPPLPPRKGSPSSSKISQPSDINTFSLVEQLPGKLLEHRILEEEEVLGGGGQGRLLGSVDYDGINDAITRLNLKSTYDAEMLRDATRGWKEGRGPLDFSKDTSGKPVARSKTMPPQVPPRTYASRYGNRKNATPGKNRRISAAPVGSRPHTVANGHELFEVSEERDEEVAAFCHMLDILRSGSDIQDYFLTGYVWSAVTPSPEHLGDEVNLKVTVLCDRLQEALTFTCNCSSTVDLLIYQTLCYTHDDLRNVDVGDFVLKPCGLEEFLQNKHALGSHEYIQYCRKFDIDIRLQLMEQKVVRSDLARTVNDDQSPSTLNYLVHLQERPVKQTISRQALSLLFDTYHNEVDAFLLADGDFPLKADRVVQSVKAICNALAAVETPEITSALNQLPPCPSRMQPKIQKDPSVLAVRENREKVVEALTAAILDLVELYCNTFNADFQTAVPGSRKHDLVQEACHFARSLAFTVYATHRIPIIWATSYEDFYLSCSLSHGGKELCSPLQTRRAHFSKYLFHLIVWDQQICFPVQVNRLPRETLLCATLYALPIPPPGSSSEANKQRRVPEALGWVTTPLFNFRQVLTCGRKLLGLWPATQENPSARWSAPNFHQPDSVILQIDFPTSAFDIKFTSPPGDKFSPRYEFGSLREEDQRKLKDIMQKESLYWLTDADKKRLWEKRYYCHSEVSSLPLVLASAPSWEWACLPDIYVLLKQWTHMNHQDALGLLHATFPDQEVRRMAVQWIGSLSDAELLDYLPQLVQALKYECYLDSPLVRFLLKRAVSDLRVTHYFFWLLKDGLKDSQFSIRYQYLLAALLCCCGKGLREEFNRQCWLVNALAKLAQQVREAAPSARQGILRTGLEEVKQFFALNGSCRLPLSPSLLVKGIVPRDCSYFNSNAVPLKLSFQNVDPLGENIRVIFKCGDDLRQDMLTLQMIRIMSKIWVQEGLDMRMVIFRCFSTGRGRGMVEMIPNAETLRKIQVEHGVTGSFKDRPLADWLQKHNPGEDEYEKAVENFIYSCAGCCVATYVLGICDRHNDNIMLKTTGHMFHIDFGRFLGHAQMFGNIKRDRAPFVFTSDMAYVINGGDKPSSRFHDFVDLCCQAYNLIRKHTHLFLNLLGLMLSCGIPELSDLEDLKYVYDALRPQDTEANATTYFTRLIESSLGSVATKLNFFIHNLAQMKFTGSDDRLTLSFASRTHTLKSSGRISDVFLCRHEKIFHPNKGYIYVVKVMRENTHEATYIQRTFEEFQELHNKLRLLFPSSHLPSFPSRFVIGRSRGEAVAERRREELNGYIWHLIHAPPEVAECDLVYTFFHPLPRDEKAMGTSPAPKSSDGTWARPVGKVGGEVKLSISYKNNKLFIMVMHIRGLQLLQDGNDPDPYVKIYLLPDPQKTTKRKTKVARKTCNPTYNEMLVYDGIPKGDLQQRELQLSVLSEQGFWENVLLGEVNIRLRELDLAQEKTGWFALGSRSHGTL
The settings on record: PIK3C2B, 10 µM; read-out: score (%).

Experiment [3] deals with T3, KinomeScan kinase panel (Homo sapiens, UniProt Q13882).
T3 construct: purchased DiscoveRx (KinomeScan)
T3 sequence (Q13882 whole entry): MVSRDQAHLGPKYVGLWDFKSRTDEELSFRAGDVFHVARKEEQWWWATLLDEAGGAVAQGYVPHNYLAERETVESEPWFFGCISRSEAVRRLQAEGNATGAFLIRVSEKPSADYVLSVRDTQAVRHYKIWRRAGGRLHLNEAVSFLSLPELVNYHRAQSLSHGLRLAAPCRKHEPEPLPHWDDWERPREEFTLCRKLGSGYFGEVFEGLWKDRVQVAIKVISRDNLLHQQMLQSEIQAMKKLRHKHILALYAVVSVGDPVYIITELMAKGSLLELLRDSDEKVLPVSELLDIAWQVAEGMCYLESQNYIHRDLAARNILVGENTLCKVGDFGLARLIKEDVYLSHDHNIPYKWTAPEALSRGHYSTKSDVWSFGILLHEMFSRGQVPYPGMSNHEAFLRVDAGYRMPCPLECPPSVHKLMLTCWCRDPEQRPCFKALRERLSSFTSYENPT
As to conditions: read-out: score (%).

In experiment [4] the target is T4, KinomeScan kinase panel (Homo sapiens, UniProt Q9BXA7).
T4 construct: purchased DiscoveRx (KinomeScan)
T4 sequence (Q9BXA7 1-367): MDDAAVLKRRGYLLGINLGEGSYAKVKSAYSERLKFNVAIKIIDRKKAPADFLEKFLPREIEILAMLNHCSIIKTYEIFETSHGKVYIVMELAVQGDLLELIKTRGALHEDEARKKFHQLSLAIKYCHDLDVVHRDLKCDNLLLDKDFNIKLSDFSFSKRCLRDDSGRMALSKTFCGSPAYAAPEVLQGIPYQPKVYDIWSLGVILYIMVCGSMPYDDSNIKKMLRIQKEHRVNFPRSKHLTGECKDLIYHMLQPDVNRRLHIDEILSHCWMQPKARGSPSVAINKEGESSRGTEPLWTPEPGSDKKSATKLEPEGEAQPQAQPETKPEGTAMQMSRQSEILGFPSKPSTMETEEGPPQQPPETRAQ
The settings on record: read-out: score (%).

The target of experiment [5] is T5, KinomeScan kinase panel (Homo sapiens, UniProt O75716).
T5 construct: purchased DiscoveRx (KinomeScan)
T5 sequence (O75716 whole entry): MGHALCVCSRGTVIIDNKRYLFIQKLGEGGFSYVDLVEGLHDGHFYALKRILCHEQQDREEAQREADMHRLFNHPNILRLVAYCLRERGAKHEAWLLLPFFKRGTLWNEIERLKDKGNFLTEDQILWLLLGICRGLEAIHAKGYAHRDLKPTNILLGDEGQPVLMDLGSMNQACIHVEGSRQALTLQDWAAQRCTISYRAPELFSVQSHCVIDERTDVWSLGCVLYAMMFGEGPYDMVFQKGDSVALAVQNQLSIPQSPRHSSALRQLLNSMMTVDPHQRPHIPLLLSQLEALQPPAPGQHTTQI
The settings on record: read-out: score (%).

Experiment [6] has as its target T6, KinomeScan kinase panel (Homo sapiens, UniProt Q9P1W9).
T6 construct: purchased DiscoveRx (KinomeScan)
The settings on record: PIM2, 10 µM; read-out: score (%).

Experiment [7] deals with T7, KinomeScan kinase panel (Homo sapiens, UniProt O96017).
T7 construct: purchased DiscoveRx (KinomeScan)
T7 sequence (O96017 whole entry): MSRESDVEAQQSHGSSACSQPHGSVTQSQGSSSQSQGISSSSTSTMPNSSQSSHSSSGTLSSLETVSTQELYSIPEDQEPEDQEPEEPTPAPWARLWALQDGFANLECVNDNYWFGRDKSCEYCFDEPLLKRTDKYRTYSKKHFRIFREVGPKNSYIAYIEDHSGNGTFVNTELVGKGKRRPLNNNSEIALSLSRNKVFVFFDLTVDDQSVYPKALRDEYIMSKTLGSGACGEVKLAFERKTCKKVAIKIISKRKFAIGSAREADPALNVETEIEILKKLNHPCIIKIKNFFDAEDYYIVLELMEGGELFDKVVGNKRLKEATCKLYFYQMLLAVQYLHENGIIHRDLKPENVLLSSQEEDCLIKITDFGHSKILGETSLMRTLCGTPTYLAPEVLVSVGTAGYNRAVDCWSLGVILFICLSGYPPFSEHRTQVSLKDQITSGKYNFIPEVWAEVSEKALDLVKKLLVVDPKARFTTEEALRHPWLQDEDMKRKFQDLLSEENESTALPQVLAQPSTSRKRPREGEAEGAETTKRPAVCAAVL
As to conditions: CHEK2, 10 µM; read-out: score (%).

Experiment [8] has as its target T8, KinomeScan kinase panel (Homo sapiens, UniProt P08631).
T8 construct: purchased DiscoveRx (KinomeScan)
The settings on record: HCK, 10 µM; read-out: score (%).

Experiment [9] deals with T9, KinomeScan kinase panel (Homo sapiens, UniProt P49137).
T9 construct: purchased DiscoveRx (KinomeScan)
T9 sequence (P49137 whole entry): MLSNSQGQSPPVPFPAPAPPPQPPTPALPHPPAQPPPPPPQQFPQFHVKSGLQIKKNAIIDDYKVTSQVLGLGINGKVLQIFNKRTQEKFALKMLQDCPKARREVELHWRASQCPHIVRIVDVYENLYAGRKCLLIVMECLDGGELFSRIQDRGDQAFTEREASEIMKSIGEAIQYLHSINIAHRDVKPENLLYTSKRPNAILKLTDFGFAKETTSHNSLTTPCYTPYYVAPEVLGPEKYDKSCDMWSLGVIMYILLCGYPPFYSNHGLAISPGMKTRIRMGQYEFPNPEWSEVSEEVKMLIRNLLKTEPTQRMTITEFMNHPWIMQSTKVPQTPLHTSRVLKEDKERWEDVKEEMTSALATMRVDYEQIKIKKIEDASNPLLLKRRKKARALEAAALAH
As to conditions: MAPKAPK2, 10 µM; read-out: score (%).

In experiment [10] the target is T10, KinomeScan kinase panel (Homo sapiens, UniProt Q13873).
T10 construct: purchased DiscoveRx (KinomeScan)
T10 sequence (Q13873 27-1038): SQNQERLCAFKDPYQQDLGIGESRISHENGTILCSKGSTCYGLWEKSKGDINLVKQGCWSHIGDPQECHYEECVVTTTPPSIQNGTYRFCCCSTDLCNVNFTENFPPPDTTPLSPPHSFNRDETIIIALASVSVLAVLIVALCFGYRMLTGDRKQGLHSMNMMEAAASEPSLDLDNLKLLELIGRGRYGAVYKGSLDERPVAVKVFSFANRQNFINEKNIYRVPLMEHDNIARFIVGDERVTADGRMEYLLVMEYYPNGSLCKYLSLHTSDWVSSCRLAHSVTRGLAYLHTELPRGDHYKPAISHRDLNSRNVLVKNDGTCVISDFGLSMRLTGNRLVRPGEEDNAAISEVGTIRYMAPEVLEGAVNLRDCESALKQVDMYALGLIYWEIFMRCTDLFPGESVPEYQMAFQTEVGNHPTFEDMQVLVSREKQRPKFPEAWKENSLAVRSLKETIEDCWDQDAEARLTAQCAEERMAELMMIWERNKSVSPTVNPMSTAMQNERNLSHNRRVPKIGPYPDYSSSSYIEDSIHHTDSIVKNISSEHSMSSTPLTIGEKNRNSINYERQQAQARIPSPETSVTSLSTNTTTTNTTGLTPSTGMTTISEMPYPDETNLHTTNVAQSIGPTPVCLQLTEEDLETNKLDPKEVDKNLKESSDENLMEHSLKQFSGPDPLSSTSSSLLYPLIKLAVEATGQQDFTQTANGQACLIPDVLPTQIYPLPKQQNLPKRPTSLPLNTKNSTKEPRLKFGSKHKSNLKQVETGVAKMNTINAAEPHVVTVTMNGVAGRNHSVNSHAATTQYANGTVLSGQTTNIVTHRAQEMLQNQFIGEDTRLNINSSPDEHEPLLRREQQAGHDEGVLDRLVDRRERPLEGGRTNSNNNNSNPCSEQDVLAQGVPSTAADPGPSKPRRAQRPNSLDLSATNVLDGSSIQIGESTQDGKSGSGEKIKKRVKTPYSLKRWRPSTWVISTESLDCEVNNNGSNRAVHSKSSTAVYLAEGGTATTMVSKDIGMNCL
The settings on record: BMPR2, 10 µM.

Experiment [11] has as its target T11, KinomeScan kinase panel (Homo sapiens, UniProt P35968).
T11 construct: purchased DiscoveRx (KinomeScan)
As to conditions: kinase VEGFR2; 10 µM; read-out: score (%).

Molecules are shown by their SMILES. Where two headings read alike, the source gives them in different places. A value given as a limit tells only on which side of the number the result lay.

T8 sequence (P08631 whole entry): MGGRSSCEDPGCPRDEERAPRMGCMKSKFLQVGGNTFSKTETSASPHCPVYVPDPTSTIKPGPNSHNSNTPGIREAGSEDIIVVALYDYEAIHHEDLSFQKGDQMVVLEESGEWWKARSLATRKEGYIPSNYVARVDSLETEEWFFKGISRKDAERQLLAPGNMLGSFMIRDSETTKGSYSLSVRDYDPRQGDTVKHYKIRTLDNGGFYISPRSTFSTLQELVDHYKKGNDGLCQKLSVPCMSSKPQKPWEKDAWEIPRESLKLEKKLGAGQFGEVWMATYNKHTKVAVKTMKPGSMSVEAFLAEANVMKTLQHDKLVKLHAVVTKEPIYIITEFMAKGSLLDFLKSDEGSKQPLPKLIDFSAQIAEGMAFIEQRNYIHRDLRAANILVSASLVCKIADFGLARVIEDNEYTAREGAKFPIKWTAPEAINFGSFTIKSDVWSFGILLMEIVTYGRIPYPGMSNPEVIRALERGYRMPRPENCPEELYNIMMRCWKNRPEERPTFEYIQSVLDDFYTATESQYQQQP
T6 sequence (Q9P1W9 whole entry): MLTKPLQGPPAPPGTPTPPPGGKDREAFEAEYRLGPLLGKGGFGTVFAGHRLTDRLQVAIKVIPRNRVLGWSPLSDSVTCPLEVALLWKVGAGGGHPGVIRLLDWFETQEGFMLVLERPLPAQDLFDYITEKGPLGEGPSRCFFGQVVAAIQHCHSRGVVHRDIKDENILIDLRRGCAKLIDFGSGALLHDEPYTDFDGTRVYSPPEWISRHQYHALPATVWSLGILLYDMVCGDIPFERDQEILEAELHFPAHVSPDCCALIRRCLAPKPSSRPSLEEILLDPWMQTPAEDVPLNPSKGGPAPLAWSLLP

On to `CCN1CCN(Cc2ccc(NC(=O)c3ccc(C)c(NC(=O)c4cncc(-c5cccs5)c4)c3)cc2C(F)(F)F)CC1` [ALW-II-41-27], for which the remaining binding at 10 µM in experiment [1] (kinase TAOK3, 10 µM) was 2.8%; in [2], above 30%; in [3] (BRK, 10 µM) it was 8.2%; in experiment [4] (kinase TSSK1B, 10 µM), above 30%; in [5] (kinase STK16, 10 µM), above 30%; in experiment [6], 22%. Besides, the remaining binding at 10 µM in experiment [7] was above 30%; in experiment [8] it was 0.2%; in experiment [9], above 30%; in experiment [11], 1.8%. Also, in [10], the “score (%)” value was “nb (Hits values higher than 30% were considered negative (no binding: nb))”.

Regarding `CCN1CCN(Cc2ccc(NC(=O)c3ccc(C)c(/C=C/c4cnc5[nH]ccc5c4Cl)c3)cc2C(F)(F)F)CC1` [HG-6-63-01, (E)-3-(2-(4-chloro-1H-pyrrolo[2,3-b]pyridin-5-yl)vinyl)-N-(4-((4-ethylpiperazin-1-yl)methyl)-3-(trifluoromethyl)phenyl)-4-methylbenzamide], the remaining binding at 10 µM in experiment [1] (TAOK3, 10 µM) was 0.1%; in experiment [2], above 30%; in experiment [3] (PTK6, 10 µM) it was 17%; in experiment [4] (TSSK1, 10 µM), above 30%; in experiment [5] (STK16, 10 µM) it was 18%; in [6], above 30%. In addition, the remaining binding at 10 µM in [7] is above 30%; in experiment [8], 0.3%; in experiment [9] it was above 30%; in experiment [11], 0.35%. Also, in experiment [10], the “score (%)” value stood at 8.2%.

With `CCN1CCN(Cc2ccc(NC(=O)c3ccc(C)c(C#Cc4cccnc4)c3)cc2C(F)(F)F)CC1` [XMD15-44], the remaining binding at 10 µM was 0% in [1] (kinase TAOK3, 10 µM); 100% in [2]; 2.8% in experiment [3] (BRK, 10 µM); 92% in [4] (kinase TSSK1B, 10 µM); 100% in [5] (kinase STK16, 10 µM); 100% in experiment [6]. Also, the remaining binding at 10 µM is above 30% in experiment [7], 0.05% in experiment [8], above 30% in [9] and 0.25% in experiment [11]. In experiment [10], the “score (%)” value is given as “nb (Hits values higher than 30% were considered negative (no binding: nb))”.

These data come from publication PMC4457528, “Identification of Novel Small Molecule Inhibitors of Oncogenic RET Kinase” (PLoS ONE, 2015).
